In patent US10144732B2 (BIOGEN MA INC., priority 2014, dated 2018) one finds IC50 data, which are given here for 26 molecules.

Each structure is given as a SMILES string. Counter-ions that a name gives are not always drawn. Some results are limits rather than exact numbers.

The first assay addresses T1, Human ATX protein (Homo sapiens, UniProt Q13822).
T1 construct: made in house
Briefly: ATX biochemical assay (FRET, FS-3 substrate). As to conditions: FRET assay, FS-3 2 μM, ATX 1.0 μg/mL, 30 minutes preincubation, 2 hours reaction at room temperature; read-out: IC50. In outline:
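FRET read-out: cleavage of FS-3 (2 μM final) unquenches fluorescein, measured at 485/538 nm after 2 h at room temperature. Before substrate addition, in-house-expressed human autotaxin (1.0 μg/mL) sat with compound for 30 min in pH 7.4 Tris/NaCl/KCl/CaCl2/MgCl2 buffer containing fatty acid free-BSA at 1 mg/mL.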
What is called IC50 is the concentration needed to halve the response being measured. Consider `CC1CCN(CC(=O)N2CCc3c(C(F)(F)F)nn(Cc4ccc(Cl)cc4F)c3C2)CC1` [Example 12-13, 1-(1-(4-Chloro-2-fluorobenzyl)-3-(trifluoromethyl)-4,5-dihydro-1H-pyrazolo[3,4-c]pyridin-6(7H)-yl)-2-(4-methylpiperidin-1-yl)ethanone], for which the 50% inhibitory concentration (IC50) is at most 100 nM.
The same measure, in the same setting: for `O=C(O)C1CCC(CC(=O)N2CCc3c(C(F)(F)F)nn(Cc4ccc(C(F)(F)F)cc4)c3C2)CC1` (mixture of isomers) [Example 6-2, 4-(2-Oxo-2-(3-(trifluoromethyl)-1-(4-(trifluoromethyl)benzyl)-4,5-dihydro-1H-pyrazolo[3,4-c]pyridin-6(7H)-yl)ethyl)cyclohexanecarboxylic acid] the value was at most 100 nM; for `O=C(N1CCc2c(C(F)(F)F)nn(Cc3ccc(F)cc3)c2C1)C12CCN(CC1)CC2` [Example 1-36, (1-(4-Fluorobenzyl)-3-(trifluoromethyl)-4,5-dihydro-1H-pyrazolo[3,4-c]pyridin-6(7H)-yl)(quinuclidin-4-yl)methanone TFA salt], 250 to 500 nM.
As to `CN1CC(CC(=O)N2CCc3c(C(F)(F)F)nn(Cc4ccc(Cl)cc4F)c3C2)C[C@@H]1C(=O)O` (stereo partly drawn) [Example 10-10, (2R)-4-(2-(1-(4-chloro-2-fluorobenzyl)-3-(trifluoromethyl)-4,5-dihydro-1H-pyrazolo[3,4-c]pyridin-6(7H)-yl)-2-oxoethyl)-1-methylpyrrolidine-2-carboxylic acid TFA salt], the half-maximal inhibitory concentration (IC50) is at most 100 nM.
With `CCOC(=O)C1CCC(CC(=O)N2CCc3c(C(F)(F)F)nn(Cc4ccc(F)cc4)c3C2)CC1` (centres unmarked) [Example 1-1, Ethyl 4-(2-(1-(4-fluorobenzyl)-3-(trifluoromethyl)-4,5-dihydro-1H-pyrazolo[3,4-c]pyridin-6 (7H)-yl)-2-oxoethyl)cyclohexanecarboxylate], the IC50 was at most 100 nM.
Still for that read-out and setting: the same measure for `O=C(O)CN1CCC(C(=O)N2CCc3c(C(F)(F)F)nn(Cc4ccc(Cl)cc4F)c3C2)C1` (centres unmarked) [Example 15-5, 2-(3-(1-(4-Chloro-2-fluorobenzyl)-3-(trifluoromethyl)-4,5,6,7-tetrahydro-1H-pyrazolo[3,4-c]pyridine-6-carbonyl)pyrrolidin-1-yl)acetic acid TFA salt]: at most 100 nM; for `N#Cc1nn(Cc2ccc(F)cc2)c2c1CCN(C(=O)C[C@H]1CC[C@H](C(=O)O)CC1)C2` [Example 5-46, trans-4-(2-(3-Cyano-1-(4-fluorobenzyl)-4,5-dihydro-1H-pyrazolo[3,4-c]pyridin-6(7H)-yl)-2-oxoethyl)cyclohexanecarboxylic acid]: at most 100 nM; for `O=C(O)C12CCC(C(=O)N3CCc4c(C(F)(F)F)nn(Cc5ccc(F)cc5)c4C3)(CC1)C2` [Example 5-50, 4-(1-(4-Fluorobenzyl)-3-(trifluoromethyl)-4,5,6,7-tetrahydro-1H-pyrazolo[3,4-c]pyridine-6-carbonyl)bicyclo[2.2.1]heptane-1-carboxylic acid]: at most 100 nM.
Still for that read-out and setting: the same measure for `O=C(O)CC1CCN(CC(=O)N2CCc3c(C(F)(F)F)nn(Cc4ccc(F)cc4)c3C2)C1` (centres unmarked) [Example 13-25, 2-(1-(2-(1-(4-Fluorobenzyl)-3-(trifluoromethyl)-4,5-dihydro-1H-pyrazolo[3,4-c]pyridin-6(7H)-yl)-2-oxoethyl)pyrrolidin-3-yl)acetic acid TFA salt]: at most 100 nM; for `CCC1CC(CC(=O)N2CCc3c(C(F)(F)F)nn(Cc4ccc(F)cc4)c3C2)CCN1` (centres unmarked) [Example 9-11, 2-(2-Ethylpiperidin-4-yl)-1-(1-(4-fluorobenzyl)-3-(trifluoromethyl)-4,5-dihydro-1H-pyrazolo[3,4-c]pyridin-6(7H)-yl)ethanone TFA salt]: at most 100 nM; for `C[C@]1(C(=O)O)CC[C@@H](CC(=O)N2CCc3c(C(F)(F)F)nn(Cc4ccc(F)cc4)c3C2)CC1` [Example 7-25, cis-4-(2-(1-(4-fluorobenzyl)-3-(trifluoromethyl)-4,5-dihydro-1H-pyrazolo[3,4-c]pyridin-6(7H)-yl)-2-oxoethyl)-1-methylcyclohexanecarboxylic acid]: at most 100 nM.
The same measure, in the same setting: for `O=C(O)CN1CCC(C(=O)N2CCc3c(C(F)(F)F)nn(Cc4ccc(F)cc4)c3C2)C1` (centres unmarked) [Example 15-4, 2-(3-(1-(4-Fluorobenzyl)-3-(trifluoromethyl)-4,5,6,7-tetrahydro-1H-pyrazolo[3,4-c]pyridine-6-carbonyl)pyrrolidin-1-yl)acetic acid TFA salt] the value was at most 100 nM.
Take `CS(=O)(=O)NC(=O)[C@H]1CC[C@@H](CC(=O)N2CCc3c(C(F)(F)F)nn(Cc4ccc(F)cc4)c3C2)CC1` [Example 19-2, cis-4-(2-(1-(4-fluorobenzyl)-3-(trifluoromethyl)-4,5-dihydro-1H-pyrazolo[3,4-c]pyridin-6(7H)-yl)-2-oxoethyl)-N-(methylsulfonyl)cyclohexane carboxamide]: the half-maximal inhibitory concentration (IC50) is at most 100 nM.
Consider `O=C(CC1CCC(O)CC1)N1CCc2c(C(F)(F)F)nn(Cc3ccc(Cl)cc3F)c2C1` (centres unmarked) [Example 1-15, 1-(1-(4-Chloro-2-fluorobenzyl)-3-(trifluoromethyl)-4,5-dihydro-1H-pyrazolo[3,4-c]pyridin-6(7H)-yl)-2-(4-hydroxycyclohexyl)ethanone], for which the IC50 is at most 100 nM.
Same read-out and setting: for `COC(=O)C1CC2CCC(C1)C2CC(=O)N1CCc2c(C(F)(F)F)nn(Cc3ccc(Cl)cc3F)c2C1` (centres unmarked) [Example 1-27, Methyl 8-(2-(1-(4-chloro-2-fluorobenzyl)-3-(trifluoromethyl)-4,5-dihydro-1H-pyrazolo[3,4-c]pyridin-6(7H)-yl)-2-oxoethyl)bicyclo[3.2.1]octane-3-carboxylate] the value was at most 100 nM; for `O=C(CC1CC(N2CCCCC2)C1)N1CCc2c(C(F)(F)F)nn(Cc3ccc(F)cc3)c2C1` (centres unmarked) [Example 22-4, 1-(1-(4-Fluorobenzyl)-3-(trifluoromethyl)-4,5-dihydro-1H-pyrazolo[3,4-c]pyridin-6(7H)-yl)-2-(3-(piperidin-1-yl)cyclobutyl)ethanone TFA salt], at most 100 nM; for `O=C(O)C1CC2(CC(CC(=O)N3CCc4c(C(F)(F)F)nn(Cc5ccc(F)cc5)c4C3)C2)C1` (centres unmarked) [Example 6-13, 6-(2-(1-(4-Fluorobenzyl)-3-(trifluoromethyl)-4,5-dihydro-1H-pyrazolo[3,4-c]pyridin-6(7H)-yl)-2-oxoethyl)spiro[3.3]heptane-2-carboxylic acid], at most 100 nM.
As to `O=C(CC1CNCCO1)N1CCc2c(C(F)(F)F)nn(Cc3ccc(F)cc3)c2C1` (centres unmarked) [Example 9-16, 1-(1-(4-Fluorobenzyl)-3-(trifluoromethyl)-4,5-dihydro-1H-pyrazolo[3,4-c]pyridin-6(7H)-yl)-2-(morpholin-2-yl)ethanone TFA salt], the IC50 was at most 100 nM.
Still for that read-out and setting: the same measure for `CCN1CCC(CC(=O)N2CCc3c(C(F)(F)F)nn(Cc4ccc(Cl)cc4F)c3C2)CC1` [Example 11-3, 1-(1-(4-Chloro-2-fluorobenzyl)-3-(trifluoromethyl)-4,5-dihydro-1H-pyrazolo[3,4-c]pyridin-6(7H)-yl)-2-(1-ethylpiperidin-4-yl)ethanone HCl salt]: at most 100 nM.
Take `O=C(CC1CCNC(C(F)(F)F)C1)N1CCc2c(C(F)(F)F)nn(Cc3ccc(Cl)cc3F)c2C1` (centres unmarked) [Example 9-7, 1-(1-(4-Chloro-2-fluorobenzyl)-3-(trifluoromethyl)-4,5-dihydro-1H-pyrazolo[3,4-c]pyridin-6(7H)-yl)-2-(2-(trifluoromethyl)piperidin-4-yl)ethanone TFA salt]: the IC50 is at most 100 nM.
In the case of `O=C(C[C@H]1CC[C@H](C(=O)O)CC1)N1CCc2c(C(F)(F)F)nn(Cc3cc(F)c(F)cc3F)c2C1` [Example 5-32, trans-4-(2-(1-(2,4,5-Trifluorobenzyl)-3-(trifluoromethyl)-4,5-dihydro-1H-pyrazolo[3,4-c]pyridin-6(7H)-yl)-2-oxoethyl)cyclohexanecarboxylic acid], the IC50 was at most 100 nM.
Still for that read-out and setting: the same measure for `CCOC(=O)[C@H]1CC[C@H](CC(=O)N2CCc3c(C(F)(F)F)nn(Cc4ccc(OC)cc4)c3C2)CC1` [Example 1-26, trans-Ethyl 4-(2-(1-(4-methoxylbenzyl)-3-(trifluoromethyl)-4,5-dihydro-1H-pyrazolo[3,4-c]pyridin-6(7H)-yl)-2-oxoethyl)cyclohexanecarboxylate]: at most 100 nM.
In the case of `CN(C(=O)N1CCc2c(C(F)(F)F)nn(Cc3ccc(Cl)cc3F)c2C1)[C@H]1CC[C@H](C(=O)O)CC1` [Example 5-10, trans-4-(1-(4-Chloro-2-fluorobenzyl)-N-methyl-3-(trifluoromethyl)-4,5,6,7-tetrahydro-1H-pyrazolo[3,4-c]pyridine-6-carboxamido)cyclohexanecarboxylic acid], the IC50 was at most 100 nM.

Still in this assay, the particulars now being: IC50, FRET assay, FS-3 2 μM, ATX 1.0 μg/mL, 30 minutes preincubation, 2 hours reaction at room temperature.
In turn, `O=C(O)C1CC2COCC(C1)N2CC(=O)N1CCc2c(C(F)(F)F)nn(Cc3ccc(F)cc3)c2C1` (centres unmarked) [Example 13-26, 9-(2-(1-(4-Fluorobenzyl)-3-(trifluoromethyl)-4,5-dihydro-1H-pyrazolo[3,4-c]pyridin-6(7H)-yl)-2-oxoethyl)-3-oxa-9-azabicyclo[3.3.1]nonane-7-carboxylic acid TFA salt] yielded a 50% inhibitory concentration (IC50) of at most 100 nM.
On the same count and under the same terms, the same measure for `CC(C)(C)OC(=O)N1C2CCC1CC(CC(=O)N1CCc3c(C(F)(F)F)nn(Cc4ccc(Cl)cc4F)c3C1)C2` (centres unmarked) [Example 8-1, tert-Butyl 3-(2-(1-(4-chloro-2-fluorobenzyl)-3-(trifluoromethyl)-4,5-dihydro-1H-pyrazolo[3,4-c]pyridin-6(7H)-yl)-2-oxoethyl)-8-azabicyclo[3.2.1]octane-8-carboxylate]: at most 100 nM; for `O=C(O)C1CC2CCC(C1)N2CC(=O)N1CCc2c(C(F)(F)F)nn(Cc3ccc(F)cc3)c2C1` (centres unmarked) [Example 13-5, 8-(2-(1-(4-Fluorobenzyl)-3-(trifluoromethyl)-4,5-dihydro-1H-pyrazolo[3,4-c]pyridin-6(7H)-yl)-2-oxoethyl)-8-azabicyclo[3.2.1]octane-3-carboxylic acid]: at most 100 nM.
